Reference: patent US10329315B2, “Glycosphingolipids and methods of use thereof” (The Brigham and Women's Hospital, Inc., priority 2012, dated 2019)

Tested on: iNKT hybridoma 24.7
Assay: iNKT cell activation in co-culture of BMDCs and iNKT hybridoma 24.7, IL-2 by ELISA
Format: cell-based
Conditions: incubated with BMDCs 4 hours, then iNKT hybridoma 24.7 for 24 hours
Method: Experiments were performed to determine whether fractions of B. fragilis sphingolipids are immunostimulatory (agonists) to iNKT cells. Lipid fractions were extracted from BF membranes, incubated with bone marrow dendritic cells (BMDCs) for 4 hours, and then co-incubated with iNKT hybridoma 24.7 for 24 hours. IL-2 was measured by ELISA as a readout of iNKT cell activation. KRN7000 refers to the known immunostimulatory alpha-GC. Cer-SL refers to the ceramide sphingolipid fraction. PE-SL refers to the phosphoethanolamine sphingolipid fraction. GL-SL refers to the glycosphingolipid fraction. C17 minor refers to alpha-GC having a C17 ceramide chain length. […] As expected, KRN7000 was stimulatory.
Further studies confirmed that alpha-GC-Bf717 was detectable only in fecal samples from BFWT mice and not in samples from BFΔSPT mice. The estimated yield of alpha-GC-Bf717 was about 1 ng per gram of fecal pellet. To confirm that alpha-GC-Bf717 had antagonistic activity, co-cultures similar to those described above for bulk GL-SL fractions were performed.

CCCCCCCCCCCCCCCCCCCCCCCCCC(=O)N[C@@H](CO[C@H]1O[C@H](CO)[C@H](O)[C@H](O)[C@H]1O)[C@H](O)[C@H](O)CCCCCCCCCCCCCC [KRN7000]
iNKT cell activation (IL-2): stimulatory
